Measurements as given in patent US20190083449A1, “COMBINATION THERAPY WITH AN ANTI-HYALURONAN AGENT AND THERAPEUTIC AGENT” (Halozyme, Inc., priority 2012, published 2019).

What was measured:
[1] = test system: B16 melanoma model; settings: oral administration at 600 mg/kg/d; cited from earlier work
[2] = route (IV or PO); cited from earlier work
[3] = biological target: T1, cytidine deaminase (Homo sapiens, UniProt P32320); settings: cited from earlier work; for Km: enzyme purified from human liver
T1 construct: for the enzyme purified from human liver; from tissue; host or cells: human liver
T1 sequence (P32320 whole entry): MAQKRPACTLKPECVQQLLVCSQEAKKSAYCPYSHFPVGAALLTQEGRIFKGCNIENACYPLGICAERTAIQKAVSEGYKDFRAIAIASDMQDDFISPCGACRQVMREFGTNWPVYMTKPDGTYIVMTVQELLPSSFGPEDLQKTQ

[4] = rapid deamination by deoxycytidine deaminase to dFdU; cited from earlier work
[5] = test system: carbohydrate antigen 19-9 (CA19-9); assay: Serum CA19-9 tumor biomarker ELISA in BxPC3 xenograft model; type: in vivo, mouse; settings: day 20 of first dosing cycle
Description: (§1) Biomarkers carbohydrate antigen 19-9 (CA19-9) and carcinoembryonic antigen (CEA) associated with pancreatic cancer were tested to measure therapeutic response. Animals were treated as described in part A. Serum was collected from satellite animals (n≤3) from each group on day 0, 6, 13 and 20 of the first dosing cycle. Human CA19-9 was measured using a CA 19-9 ELISA kit (Catalog No. CA199T, Calbiotech, Spring Valley, Calif.) and CEA tumor antigen was measured using a CEA ELISA kit (Catalog No. CE062T, Calbiotech, Spring Valley, Calif.).

[6] = test system: BxPC3 pancreatic cancer cell line; assay: Median survival time to endpoint in BxPC3 xenograft model; type: in vivo, mouse; settings: three four-week dosing cycles; PEGPH20 4.5 mg/mL, nab-paclitaxel 10 mg/kg, gemcitabine 180 mg/kg; endpoint tumor >2000 mm^3, >20% bodyweight loss, duress or death
Description: Following the first four week dosing cycle as set forth in part A, the dosing cycle was repeated two times and time to survival endpoint was followed over time. Briefly, in each dosing cycle, animals were treated with vehicle or PEGPH20 (4.5 mg/mL) with or without nab-paclitaxel (10 mg/kg) intravenously twice a week for four weeks. In each cycle, groups receiving gemcitabine were administered gemcitabine (180 mg/kg) 24 hours after PEGPH20 and/or nab-paclitaxel every 7 days for three weeks of the dose cycle. Time to survival endpoint, a surrogate of animal survival, was defined as (a) time to tumor volume of greater than 2000 mm^3, (b) time to a greater than 20% bodyweight loss, or (c) time to animal duress or death.

[7] = test system: BxPC3 pancreatic cancer cell line; assay: Tumor growth inhibition in BxPC3 xenograft model, PEGPH20, nab-paclitaxel and/or gemcitabine; type: in vivo, mouse
Description: The human pancreatic cancer xenograft model described in Example 1 was used to evaluate the antitumor effects of PEGPH20 and nab-paclitaxel combination therapy in further combination with gemcitabine treatment. Prior to performing the study, a route and dose level for gemcitabine was selected based. […] The results are depicted in FIG. 2. […] Gemcitabine was administered intraperitoneally 24 hours after PEGPH20 and/or nab-paclitaxel every 7 days for three weeks of the dose cycle. […] The results are depicted in FIG. 3. […] Table 6 depicts the results as the percentage growth inhibition relative to vehicle as determined from tumor volume measurements at day 26.

[8] = test system: carcinoembryonic antigen (CEA); assay: Serum CEA tumor biomarker ELISA in BxPC3 xenograft model; type: in vivo, mouse; settings: day 20 of first dosing cycle
Description: as §1

[9] = test system: pancreatic cancer; settings: cited from earlier work

Compound: Cc1cc(=O)oc2cc(O)ccc12 [4-MU, 7-hydroxy-4-methylcoumarin]
- reduction of metastases [1]: 64%

Compound: C[C@]12CCC(=O)C=C1CC[C@@H]1[C@@H]2[C@@H](O)C[C@@]2(C)[C@H]1CC[C@]2(O)C(=O)CO [Hydrocortisone]
- Equivalent Potency [2]: 20 mg

Compound: C[C@H]1C[C@@H]2[C@H]([C@@H](O)C[C@@]3(C)[C@H]2CC[C@]3(O)C(=O)COC(=O)CCC(=O)O)[C@@]2(C)C=CC(=O)C=C12 [Methylprednisolone sodium succinate]
- Equivalent Potency [2]: 4 mg

Compound: C[C@]12C=CC(=O)C=C1CC[C@@H]1[C@@H]2[C@@H](O)C[C@@]2(C)[C@H]1CC[C@]2(O)C(=O)CO [Prednisolone]
- Equivalent Potency [2]: 5 mg

Compound: Nc1ncn([C@H]2C[C@H](O)[C@@H](CO)O2)c(=O)n1 [decitabine, 5-aza-2′-deoxycytidine]
- Km [3]: 250 µM

Compound: Nc1ccn([C@H]2C[C@H](O)[C@@H](CO)O2)c(=O)n1 [deoxycytidine]
- rate of deamination relative to decitabine ([3]; at equal concentrations): about 6 fold
- Km [3]: 12 µM

Compound: Nc1ccn([C@@H]2O[C@H](CO)[C@@H](O)C2(F)F)c(=O)n1 [gemcitabine, 2′-deoxy-2′,2′-difluorocytidine]
- half-life in plasma [4]: approximately 10 minutes
- level of CA19-9 marker in serum [5]: approximately similar to vehicle only control
- Median Survival Time [6]: 38 days
- Tumor Growth Inhibition (% of vehicle control) ([7]; day 26, PEGPH20 4.5 mg/kg i.v. 2x/wk, nab-paclitaxel 10 mg/kg i.v. 2x/wk, gemcitabine 180 mg/kg i.p. weekly): 25%
- antitumor activity (in words) ([7]; four week dose cycle, FIG. 3): some antitumor activity
- tumor growth compared to vehicle only (in words) ([7]; gemcitabine 60, 120, 180 and 240 mg/kg once a week (day 0, 7, 14, 21)): inhibited tumor growth at all doses tested
- level of CEA marker in serum [8]: approximately 15 ng/mL
- survival compared to patients who had surgery alone ([9]; adjuvant setting): increased survival by two months
- median survival ([9]; gemcitabine monotherapy): over 5 months
